Laboratory results published in ChEMBL document CHEMBL5678818, “Discovery of potent SOS1 inhibitors that block RAS activation via disruption of the RAS-SOS1 interaction” (Proc Natl Acad Sci U S A, 2019).

Tests used:
[1] = target: Tyrosine-protein kinase ABL1 (Homo sapiens) (UniProt P00519); assay: Inhibition of nonphosphorylated ABL1 (unknown origin) assessed as residual activity at 1000 nM by KINOMEscan analysis relative to control
[2] = target: Protein-tyrosine kinase 6 (Homo sapiens) (UniProt Q13882); assay: Inhibition of BRK (unknown origin) assessed as residual activity at 1000 nM by KINOMEscan analysis relative to control
[3] = target: Focal adhesion kinase 1 (Homo sapiens) (UniProt Q05397); assay: Inhibition of FAK (unknown origin) assessed as residual activity at 1000 nM by KINOMEscan analysis relative to control
[4] = target: T1, Myosin-IIIb (Homo sapiens) (UniProt Q8WXR4); assay: Inhibition of MYO3B (unknown origin) assessed as residual activity at 1000 nM by KINOMEscan analysis relative to control
T1 sequence (whole entry): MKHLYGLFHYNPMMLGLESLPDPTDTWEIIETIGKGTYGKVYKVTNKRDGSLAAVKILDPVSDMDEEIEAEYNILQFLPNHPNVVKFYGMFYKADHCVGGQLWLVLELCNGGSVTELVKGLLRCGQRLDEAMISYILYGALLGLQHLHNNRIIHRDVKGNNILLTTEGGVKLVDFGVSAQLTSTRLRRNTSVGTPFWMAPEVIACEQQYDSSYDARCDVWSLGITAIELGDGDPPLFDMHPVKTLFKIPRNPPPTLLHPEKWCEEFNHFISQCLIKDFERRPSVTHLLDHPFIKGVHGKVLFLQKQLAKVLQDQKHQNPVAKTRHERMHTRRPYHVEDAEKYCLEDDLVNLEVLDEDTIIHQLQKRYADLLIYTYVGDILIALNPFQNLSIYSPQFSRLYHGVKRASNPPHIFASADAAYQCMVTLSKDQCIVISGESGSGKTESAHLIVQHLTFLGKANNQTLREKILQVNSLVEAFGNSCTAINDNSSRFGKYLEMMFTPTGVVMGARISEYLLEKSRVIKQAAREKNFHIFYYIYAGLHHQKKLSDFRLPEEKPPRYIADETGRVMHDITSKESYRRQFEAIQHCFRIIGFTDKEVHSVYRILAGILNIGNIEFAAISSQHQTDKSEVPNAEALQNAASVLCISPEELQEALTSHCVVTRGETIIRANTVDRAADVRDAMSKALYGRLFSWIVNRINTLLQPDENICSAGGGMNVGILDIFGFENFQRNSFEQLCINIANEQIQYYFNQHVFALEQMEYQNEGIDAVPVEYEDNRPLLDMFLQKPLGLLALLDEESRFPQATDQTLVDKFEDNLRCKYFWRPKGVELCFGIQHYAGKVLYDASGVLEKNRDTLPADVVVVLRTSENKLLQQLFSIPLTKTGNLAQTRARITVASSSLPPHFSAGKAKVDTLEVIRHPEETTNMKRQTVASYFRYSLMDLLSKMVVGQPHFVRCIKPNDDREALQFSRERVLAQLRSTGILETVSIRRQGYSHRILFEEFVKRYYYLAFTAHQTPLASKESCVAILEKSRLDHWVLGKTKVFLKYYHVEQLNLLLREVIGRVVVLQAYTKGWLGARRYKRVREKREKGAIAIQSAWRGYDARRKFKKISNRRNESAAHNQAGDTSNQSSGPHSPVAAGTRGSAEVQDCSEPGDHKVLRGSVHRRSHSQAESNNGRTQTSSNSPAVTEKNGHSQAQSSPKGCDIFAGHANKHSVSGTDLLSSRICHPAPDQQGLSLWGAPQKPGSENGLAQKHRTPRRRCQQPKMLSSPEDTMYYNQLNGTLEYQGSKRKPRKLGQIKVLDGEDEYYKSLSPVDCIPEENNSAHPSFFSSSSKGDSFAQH

[5] = target: T2, Serine/threonine-protein kinase Nek11 (Homo sapiens) (UniProt Q8NG66); assay: Inhibition of NEK11 (unknown origin) assessed as residual activity at 1000 nM by KINOMEscan analysis relative to control
T2 sequence (whole entry): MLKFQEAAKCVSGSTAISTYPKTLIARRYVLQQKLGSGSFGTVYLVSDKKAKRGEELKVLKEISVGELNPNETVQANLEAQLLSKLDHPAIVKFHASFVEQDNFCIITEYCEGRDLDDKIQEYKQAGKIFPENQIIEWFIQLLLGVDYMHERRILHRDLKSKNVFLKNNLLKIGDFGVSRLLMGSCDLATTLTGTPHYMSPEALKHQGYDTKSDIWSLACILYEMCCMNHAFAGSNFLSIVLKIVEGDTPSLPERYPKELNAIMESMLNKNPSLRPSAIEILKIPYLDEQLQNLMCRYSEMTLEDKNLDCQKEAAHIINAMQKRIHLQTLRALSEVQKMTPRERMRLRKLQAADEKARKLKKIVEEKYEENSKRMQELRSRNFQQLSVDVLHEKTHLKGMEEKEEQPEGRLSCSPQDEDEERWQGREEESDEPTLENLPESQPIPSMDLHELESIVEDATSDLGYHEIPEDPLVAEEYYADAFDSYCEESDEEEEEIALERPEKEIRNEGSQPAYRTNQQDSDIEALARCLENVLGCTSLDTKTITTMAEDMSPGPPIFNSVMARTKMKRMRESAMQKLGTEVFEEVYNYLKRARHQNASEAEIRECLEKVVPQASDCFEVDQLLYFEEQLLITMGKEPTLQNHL

[6] = target: Phosphatidylinositol 4,5-bisphosphate 3-kinase catalytic subunit alpha isoform (Homo sapiens) (UniProt P42336); assay: Inhibition of PIK3CA (unknown origin) assessed as residual activity at 1000 nM by KINOMEscan analysis relative to control
[7] = target: Protein kinase C delta type (Homo sapiens) (UniProt Q05655); assay: Inhibition of PRKCD (unknown origin) assessed as residual activity at 1000 nM by KINOMEscan analysis relative to control
[8] = target: NT-3 growth factor receptor (Homo sapiens) (UniProt Q16288); assay: Inhibition of TRKC (unknown origin) assessed as residual activity at 1000 nM by KINOMEscan analysis relative to control
NT-3 growth factor receptor (Homo sapiens), sequence (Q16288 32-839 limits assumed): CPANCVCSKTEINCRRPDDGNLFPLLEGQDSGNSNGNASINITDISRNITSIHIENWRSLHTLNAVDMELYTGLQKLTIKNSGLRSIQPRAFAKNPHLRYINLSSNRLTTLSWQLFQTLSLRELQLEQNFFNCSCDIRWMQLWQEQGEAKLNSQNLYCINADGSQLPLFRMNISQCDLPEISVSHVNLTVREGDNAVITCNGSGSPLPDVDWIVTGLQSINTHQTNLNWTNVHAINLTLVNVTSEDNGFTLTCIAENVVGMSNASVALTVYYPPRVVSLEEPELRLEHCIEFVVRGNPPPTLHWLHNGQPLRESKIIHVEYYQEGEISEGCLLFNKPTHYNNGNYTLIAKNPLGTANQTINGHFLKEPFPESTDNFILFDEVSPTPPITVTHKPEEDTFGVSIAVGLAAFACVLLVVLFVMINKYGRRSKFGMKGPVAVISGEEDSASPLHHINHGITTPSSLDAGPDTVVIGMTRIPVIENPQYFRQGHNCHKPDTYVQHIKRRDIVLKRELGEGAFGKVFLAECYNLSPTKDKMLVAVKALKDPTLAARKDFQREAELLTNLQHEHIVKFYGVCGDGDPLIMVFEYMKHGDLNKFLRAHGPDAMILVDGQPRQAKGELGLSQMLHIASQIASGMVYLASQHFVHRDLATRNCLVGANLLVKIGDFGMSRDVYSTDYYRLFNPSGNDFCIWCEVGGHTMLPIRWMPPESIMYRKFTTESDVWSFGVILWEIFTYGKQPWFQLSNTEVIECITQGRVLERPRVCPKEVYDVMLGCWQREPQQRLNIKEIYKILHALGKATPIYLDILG

Focal adhesion kinase 1 (Homo sapiens), sequence (Q05397 2-1052 limits assumed): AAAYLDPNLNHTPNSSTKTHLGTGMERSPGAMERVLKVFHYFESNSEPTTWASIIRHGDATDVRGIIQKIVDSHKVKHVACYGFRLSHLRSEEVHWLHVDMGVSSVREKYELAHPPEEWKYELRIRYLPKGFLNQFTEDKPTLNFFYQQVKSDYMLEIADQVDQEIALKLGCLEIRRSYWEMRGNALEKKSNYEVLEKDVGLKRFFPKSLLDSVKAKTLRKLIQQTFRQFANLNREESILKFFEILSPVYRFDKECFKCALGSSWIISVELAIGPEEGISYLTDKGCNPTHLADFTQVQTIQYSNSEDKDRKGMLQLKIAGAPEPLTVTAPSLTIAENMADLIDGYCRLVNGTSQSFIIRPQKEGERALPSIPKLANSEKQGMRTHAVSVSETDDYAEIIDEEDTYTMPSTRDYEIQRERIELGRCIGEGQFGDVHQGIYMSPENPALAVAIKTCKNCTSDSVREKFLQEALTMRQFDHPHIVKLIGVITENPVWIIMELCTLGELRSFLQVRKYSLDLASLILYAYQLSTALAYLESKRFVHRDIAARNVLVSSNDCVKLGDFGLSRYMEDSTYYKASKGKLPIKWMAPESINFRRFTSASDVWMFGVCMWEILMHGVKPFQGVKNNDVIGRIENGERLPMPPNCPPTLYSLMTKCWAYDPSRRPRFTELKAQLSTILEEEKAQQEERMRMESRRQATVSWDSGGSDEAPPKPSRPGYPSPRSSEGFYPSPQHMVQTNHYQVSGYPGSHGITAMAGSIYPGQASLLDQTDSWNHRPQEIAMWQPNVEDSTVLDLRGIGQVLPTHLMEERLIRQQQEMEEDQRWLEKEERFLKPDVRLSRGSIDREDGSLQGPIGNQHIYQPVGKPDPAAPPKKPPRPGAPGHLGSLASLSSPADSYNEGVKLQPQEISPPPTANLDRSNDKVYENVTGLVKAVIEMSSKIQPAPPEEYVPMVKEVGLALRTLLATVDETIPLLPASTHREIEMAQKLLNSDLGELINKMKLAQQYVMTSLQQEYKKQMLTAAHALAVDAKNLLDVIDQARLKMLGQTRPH
Tyrosine-protein kinase ABL1 (Homo sapiens), sequence (P00519 whole entry): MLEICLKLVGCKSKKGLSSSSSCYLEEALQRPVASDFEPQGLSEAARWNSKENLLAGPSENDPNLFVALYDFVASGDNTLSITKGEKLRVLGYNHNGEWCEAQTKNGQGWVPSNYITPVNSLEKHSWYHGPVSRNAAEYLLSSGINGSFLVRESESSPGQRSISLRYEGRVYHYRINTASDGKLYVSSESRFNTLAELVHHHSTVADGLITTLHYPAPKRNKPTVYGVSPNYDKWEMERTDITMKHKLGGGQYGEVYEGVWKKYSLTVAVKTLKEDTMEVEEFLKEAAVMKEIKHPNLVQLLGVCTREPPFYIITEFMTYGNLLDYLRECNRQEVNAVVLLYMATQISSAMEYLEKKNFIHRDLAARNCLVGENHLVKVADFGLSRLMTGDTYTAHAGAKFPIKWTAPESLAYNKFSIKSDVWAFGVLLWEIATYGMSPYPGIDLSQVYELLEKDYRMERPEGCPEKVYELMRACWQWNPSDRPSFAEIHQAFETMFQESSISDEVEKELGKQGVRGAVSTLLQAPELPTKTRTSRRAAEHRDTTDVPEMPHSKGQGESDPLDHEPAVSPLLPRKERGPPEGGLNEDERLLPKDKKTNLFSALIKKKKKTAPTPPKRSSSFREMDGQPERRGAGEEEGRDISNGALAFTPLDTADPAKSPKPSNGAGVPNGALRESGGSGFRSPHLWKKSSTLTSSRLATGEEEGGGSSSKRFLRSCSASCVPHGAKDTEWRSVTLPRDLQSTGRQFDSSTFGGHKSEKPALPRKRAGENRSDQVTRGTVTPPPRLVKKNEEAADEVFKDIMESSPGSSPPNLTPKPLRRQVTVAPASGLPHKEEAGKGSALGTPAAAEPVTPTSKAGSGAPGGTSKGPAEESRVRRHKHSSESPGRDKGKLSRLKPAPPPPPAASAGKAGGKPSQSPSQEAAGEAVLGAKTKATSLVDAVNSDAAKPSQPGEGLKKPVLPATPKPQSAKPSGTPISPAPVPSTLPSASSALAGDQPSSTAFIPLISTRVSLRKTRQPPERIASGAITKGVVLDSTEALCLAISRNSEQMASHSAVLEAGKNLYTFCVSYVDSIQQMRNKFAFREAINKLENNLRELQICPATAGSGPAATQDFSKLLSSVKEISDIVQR
Protein-tyrosine kinase 6 (Homo sapiens), sequence (Q13882 whole entry, looked up): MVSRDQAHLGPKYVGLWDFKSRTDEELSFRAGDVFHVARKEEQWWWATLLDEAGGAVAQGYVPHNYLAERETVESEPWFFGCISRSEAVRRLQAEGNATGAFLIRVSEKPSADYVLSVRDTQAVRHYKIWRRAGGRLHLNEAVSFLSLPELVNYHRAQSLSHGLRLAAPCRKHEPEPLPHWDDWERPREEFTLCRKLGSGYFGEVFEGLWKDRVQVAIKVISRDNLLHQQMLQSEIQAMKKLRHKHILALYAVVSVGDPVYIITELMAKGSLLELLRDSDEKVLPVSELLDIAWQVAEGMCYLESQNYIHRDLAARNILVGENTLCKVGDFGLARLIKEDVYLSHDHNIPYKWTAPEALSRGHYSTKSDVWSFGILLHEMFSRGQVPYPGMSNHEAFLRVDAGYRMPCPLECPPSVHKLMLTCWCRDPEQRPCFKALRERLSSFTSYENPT
Protein kinase C delta type (Homo sapiens), sequence (Q05655 whole entry, looked up): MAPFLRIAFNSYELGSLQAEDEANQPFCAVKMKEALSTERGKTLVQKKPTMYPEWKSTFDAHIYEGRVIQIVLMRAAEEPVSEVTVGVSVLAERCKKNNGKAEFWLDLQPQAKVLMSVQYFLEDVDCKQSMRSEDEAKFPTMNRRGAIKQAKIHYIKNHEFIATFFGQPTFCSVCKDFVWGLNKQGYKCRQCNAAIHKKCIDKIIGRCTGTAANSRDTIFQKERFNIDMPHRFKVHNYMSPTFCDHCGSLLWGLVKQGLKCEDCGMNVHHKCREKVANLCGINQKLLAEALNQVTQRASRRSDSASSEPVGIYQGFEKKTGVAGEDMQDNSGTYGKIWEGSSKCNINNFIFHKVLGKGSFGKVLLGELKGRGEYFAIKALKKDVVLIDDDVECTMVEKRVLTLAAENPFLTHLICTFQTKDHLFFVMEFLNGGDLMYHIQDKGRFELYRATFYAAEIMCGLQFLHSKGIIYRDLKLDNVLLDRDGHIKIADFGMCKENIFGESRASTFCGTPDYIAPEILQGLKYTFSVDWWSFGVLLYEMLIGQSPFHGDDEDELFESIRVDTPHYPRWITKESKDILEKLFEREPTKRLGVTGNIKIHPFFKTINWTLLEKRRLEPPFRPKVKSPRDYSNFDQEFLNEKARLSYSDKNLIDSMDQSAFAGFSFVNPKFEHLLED

COc1cc2nc(C)nc(N[C@H](C)c3cccc(-c4cn[nH]c4)c3)c2cc1OC
Activity [1]: 54% | Activity [2]: 57% | Activity [3]: 95% | Activity [4]: 89% | Activity [5]: 93% | Activity [6]: 96% | Activity [7]: 59% | Activity [8]: 88%

COc1cc2ncnc(N[C@H](C)c3cccc4ccccc34)c2cc1OC
Activity [1]: 100% | Activity [2]: 100% | Activity [3]: 100% | Activity [4]: 88% | Activity [5]: 81% | Activity [6]: 73% | Activity [7]: 81% | Activity [8]: 95%
